Measured values reported in paper PMC4849104, “Selected novel 5'-amino-2'-hydroxy-1, 3-diaryl-2-propen-1-ones arrest cell cycle of HCT-116 in G0/G1 phase” (EXCLI Journal, 2016).
Where “and” joins values, the source holds several entries; their conditions need not be identical. Equal values may be shown once.

Columns and labels:
[1] = tested on: human colon cancer (HCT-116) cells; assay: Cytotoxicity by MTT assay on HCT-116; assay type: cell-based; conditions: for IC50 / IC50 (μM) HCT-116: MTT assay, 48 h incubation; for cytotoxicity against HCT-116 (in words): MTT, close to 200 µM including SEM
Experimental: (§1) Cytotoxicity of the synthesized compounds was evaluated in cancer cells namely human colon cancer (HCT-116) cells and human breast cancer (MCF-7) cells and normal kidney epithelial cells (Vero). These cells were originally procured from National Cancer Center for Cell Science, Pune, India and cultured in our lab using Dulbecco's modified Eagles medium (DMEM) containing 10 % fetal bovine serum (FBS) at 37 °C in an atmosphere containing 5 % CO2. All other chemicals used in this study were purchased from Sigma-Aldrich, USA.
(§2) Cell suspension containing 1 x 10^4 cells in 0.1 mL was seeded in a 96 well plate for 24 h. Test compounds were serially diluted with the medium to get a stock solution of 400 µM, 200 µM, 100 µM, 50 µM. After 24 h of incubation, 100 µL of test solution from respective stocks was added in triplicate and incubated for 48 h. After the treatment, drug-containing media was removed and 20 µL of MTT reagent (5 mg/mL in PBS) was added to each well. After 4 h of incubation at 37 °C, the MTT reagent was removed and 100 µL of 100 % DMSO was added to each well to solubilize formazan crystals. The optical density was measured using an ELISA plate reader at 540 nm and percentage cytotoxicity was calculated. (Kumar et al., 2012[15]; Zi and Simoneau, 2005[31]).

[2] = tested on: human breast cancer (MCF-7) cells; assay: Cytotoxicity by MTT assay on MCF-7; assay type: cell-based; conditions: for IC50 / IC50 (μM) MCF-7: MTT assay, 48 h incubation; for cytotoxicity against MCF-7 (in words): MTT, close to 200 µM including SEM
Experimental: as §1, §2

[3] = tested on: normal kidney epithelial cells (Vero); assay: Cytotoxicity by MTT assay on Vero; assay type: cell-based; conditions: 48 h incubation
Experimental: as §1, §2

HCT-116 cells [4] = assay: Acridine orange/ethidium bromide (AO/EB) dual nuclear staining, apoptotic index; assay type: cell-based, human; conditions: HCT-116, AO/EB; for percentage apoptotic nuclei (apoptotic index): mean ± SEM
Experimental: DNA-binding dyes Acridine orange (AO) and Ethidium bromide (EB) (Sigma, USA) were used for the morphological detection of apoptotic cells. 5 x 10^3 cells were seeded per well in 24-well plates with DMEM, containing 10 % FBS. After 24 h, cells were treated with selected concentrations of test compounds and incubated for 24 h. The media was removed and plate was washed with phosphate buffer saline (PBS, pH 7.4). Cells were fixed in ice-cold methanol for 20 min, washed with PBS again and stained with acridine orange and ethidium bromide stain (20/30 µg/ml). After incubation for 20 min at 37 °C, and washing with PBS thrice, the plate was observed under a fluorescent microscope for morphological changes in nucleus such as condensed chromatin and fragmented nuclei. The apoptotic index (AI) was calculated as % of apoptotic cells from randomly counted 100 cells in each treatment group (Reddy et al., 2015[25]).

HCT-116 cells [5] = assay: Cell cycle analysis by flow cytometry with propidium iodide; assay type: cell-based, human; conditions: for phase of cell cycle arrest: HCT-116, AC-10 100 µM, AC-13 and AC-14 50 µM, doxorubicin 1 µM
Experimental: Flow cytometric analysis technique evaluates the effect of test compounds on cell cycle progression and check-points. Cells (1 x 10^6) were seeded in 25 cm^2 flasks and, after overnight adherence, incubated with test compounds. Then cells were detached by trypsinization and mixed with floating cells, centrifuged and washed with PBS. The cell pellets were fixed in 70 % ice-cold methanol and stored at -20 °C for 24 h. After that cell pellets were washed with PBS and isotonic PI solution [25 µM propidium iodide, 0.03 % NP-40 and 40 µg /ml RNase A] was added. The stained cells were analyzed using Accuri C6 flow cytometer (BD Biosciences, San Jose, CA, USA) with excitation at 488 nm and emission at 575/40 nm (Reddy et al., 2015[25]).

Compound	IC50 ([1]; Homo sapiens, HCT-116) [µM]	IC50 ([2]; Homo sapiens, MCF7) [µM]	IC50 ([3]; Chlorocebus sabaeus, Vero) [µM]	melting point [°C]	cytotoxicity against HCT-116 (in words) [1]	IC50 (μM) MCF-7 [2]	cytotoxicity against MCF-7 (in words) [2]	further results
Nc1ccc(O)c(C(=O)/C=C/c2ccccc2)c1 [AC-1, (E)-1-(5-Amino-2-Hydroxyphenyl)-3-phenylprop-2-en-1-one]	299 ± 49.8	1960 ± 776	> 200	126				
Nc1ccc(O)c(C(=O)/C=C/c2ccc(Cl)cc2)c1 [AC-2, (E)-1-(5-Amino-2-Hydroxyphenyl)-3-(4-chlorophenyl)prop-2-en-1-one]	205 ± 3.15		> 200	138	high cytotoxicity	No activity		
Nc1ccc(O)c(C(=O)/C=C/c2ccc(F)cc2)c1 [AC-3, (E)-1-(5-Amino-2-Hydroxyphenyl)-3-(4-fluorophenyl)prop-2-en-1-one]	174 ± 3.53	542 ± 38.5	> 200	154	high cytotoxicity			
Nc1ccc(O)c(C(=O)/C=C/c2cccc([N+](=O)[O-])c2)c1 [AC-4, (E)-1-(5-Amino-2-Hydroxyphenyl)-3-(3-nitrophenyl)prop-2-en-1-one]	309 ± 74.1		> 200	112		No activity		
CCOc1ccc(/C=C/C(=O)c2cc(N)ccc2O)cc1 [AC-5, (E)-1-(5-Amino-2-Hydroxyphenyl)-3-(4-ethoxyphenyl)prop-2-en-1-one]			> 200	135		No activity		IC50 (μM) HCT-116 [1]: No activity
COc1cccc(/C=C/C(=O)c2cc(N)ccc2O)c1 [AC-6, (E)-1-(5-Amino-2-Hydroxyphenyl)-3-(3-methoxyphenyl)prop-2-en-1-one]			> 200	110		No activity		IC50 (μM) HCT-116 [1]: No activity
COc1cc(/C=C/C(=O)c2cc(N)ccc2O)ccc1O [AC-7, (E)-1-(5-Amino-2-Hydroxyphenyl)-3-(4-hydroxy-3-methoxyphenyl)prop-2-en-1-one]	393 ± 77.9	248 ± 4.31	> 200	136				
COc1ccc(/C=C/C(=O)c2cc(N)ccc2O)cc1O [AC-8, (E)-1-(5-Amino-2-Hydroxyphenyl)-3-(3-hydroxy-4-methoxyphenyl)prop-2-en-1-one]	123 ± 7.2	171 ± 12.9	> 200	136	high cytotoxicity		high cytotoxicity	
COc1ccc(/C=C/C(=O)c2cc(N)ccc2O)cc1OC [AC-9, (E)-1-(5-Amino-2-Hydroxyphenyl)-3-(3,4-dimethoxyphenyl)prop-2-en-1-one]	186 ± 7.3	190 ± 10.5	> 200	90	high cytotoxicity		high cytotoxicity	
Nc1ccc(O)c(C(=O)/C=C/c2ccccc2O)c1 [AC-10, (E)-1-(5-Amino-2-Hydroxyphenyl)-3-(2-hydroxyphenyl)prop-2-en-1-one]	95.4 ± 1.7	74.7 ± 3.5	> 200	130 to 132	high cytotoxicity		high cytotoxicity	percentage apoptotic nuclei (apoptotic index) (HCT-116 cells [4]; 100 µM): 27 ± 3.21%; % cells in G0/G1 phase (M1) (HCT-116 cells [5]; HCT-116, 100 µM, 48 h treatment): 70.5%; phase of cell cycle arrest (HCT-116 cells [5]): G0/G1 phase
COc1ccc(/C=C/C(=O)c2cc(N)ccc2O)cc1 [AC-11, (E)-1-(5-Amino-2-Hydroxyphenyl)-3-(4-methoxyphenyl)prop-2-en-1-one]		1030 ± 60.6	> 200	102 to 104				IC50 (μM) HCT-116 [1]: No activity
Nc1ccc(O)c(C(=O)/C=C/c2ccc3c(c2)OCO3)c1 [AC-13, (E)-1-(5-Amino-2-Hydroxyphenyl)-3-(3,4-methylenedioxyphenyl)prop-2-en-1-one]	42.1 ± 4	130 ± 3.8	> 200	128	high cytotoxicity		high cytotoxicity	increase in apoptotic nuclei compared to medium control (HCT-116 cells [4]; 50 µM): about five; percentage apoptotic nuclei (apoptotic index) (HCT-116 cells [4]; 50 µM): 31% and 31 ± 4.16%; % cells in G0/G1 phase (M1) (HCT-116 cells [5]; HCT-116, 50 µM, 48 h treatment): 66.5%; % cells in G2/M phase (M3) (HCT-116 cells [5]; HCT-116, 50 µM, 48 h treatment): 25.1%; phase of cell cycle arrest (HCT-116 cells [5]): G0/G1 and G2/M phase
COc1cc(/C=C/C(=O)c2cc(N)ccc2O)cc(OC)c1OC [AC-14, (E)-1-(5-Amino-2-Hydroxyphenyl)-3-(3,4,5-trimethoxyphenyl)prop-2-en-1-one]	62 ± 2.3	197 ± 7.9	> 200	136 to 138	high cytotoxicity		high cytotoxicity	percentage apoptotic nuclei (apoptotic index) (HCT-116 cells [4]; 50 µM): 24.3 ± 3.53%; % cells in G0/G1 phase (M1) (HCT-116 cells [5]; HCT-116, 50 µM, 48 h treatment): 70.8%; phase of cell cycle arrest (HCT-116 cells [5]): G0/G1 phase
Nc1ccc(O)c(C(=O)/C=C/c2ccc(OCc3ccccc3)cc2)c1 [AC-15, (E)-1-(5-Amino-2-Hydroxyphenyl)-3-(4-benzyloxyphenyl)prop-2-en-1-one]	211 ± 26		> 200	136 to 138		No activity		
COc1cccc2c1C(=O)c1c(O)c3c(c(O)c1C2=O)C[C@@](O)(C(=O)CO)C[C@@H]3O[C@H]1C[C@H](N)[C@H](O)[C@H](C)O1 [doxorubicin, reference compound]								more accumulation of cells in G2/M phase as compared to normal control (HCT-116 cells [5]; HCT-116, 1 µM (standard), normal control 23.0 %): 7.4%; phase of cell cycle arrest (HCT-116 cells [5]): G2/M phase
(E)-1-(5-Amino-2-Hydroxyphenyl)-3-(3,4-dichlorophenyl)prop-2-en-1-one [AC-12]								IC50 [1]: 169 ± 66.7 µM; IC50 [2]: 236 ± 9.8 µM; IC50 [3]: > 200 µM
